Assay results published in patent US20210379112A1, “STEM CELL THERAPY” (PLASTICELL LIMITED, priority 2018, published 2021).

Tests used:
[1] = test system: UCB derived CD133+ cells; test: Ex vivo expansion of umbilical cord blood CD133+ cells (flow cytometry, counting beads); format: cell-based, human; conditions: for fold expansion of total nucleated cells (TNC) compared to cells grown in basal media / fold expansion of HSC compared to cells grown in basal media / fold expansion of HSC (Lin−, CD38−, CD34+, CD45RA−, CD133+, CD90+, CD49f+) above basal media containing cytokines: UCB cells; for fold expansion of total nucleated cells (TNC) compared to cells grown in basal media: 5 days culture, vs basal media with cytokines, WR1065 added 16-20 h before harvest; for fold expansion of HSC compared to cells grown in basal media / fold expansion of HSC (Lin−, CD38−, CD34+, CD45RA−, CD133+, CD90+, CD49f+) above basal media containing cytokines: 5 days; for fold expansion of HSC compared to cells grown in basal media: result in words, FIG. 7-12; for fold expansion of HSC (Lin−, CD38−, CD34+, CD45RA−, CD133+, CD90+, CD49f+) above basal media containing cytokines: scriptaid 1 μM, WR1065 100 μM, FIG. 3
Excerpt: Human UCB units were collected with written informed pre-consent and ethical approval from Oxford and Berkshire National Research Ethical Committees and studies conducted with approval of the NHSBT research committee. UCB mononuclear cells (MNC) were isolated by density gradient centrifugation on lymphocyte separation medium 1077 (PAA Laboratories, Pasching, Austria; density<1.077 g/ml). CD133+ cells were isolated from the MNC with immunomagnetic beads (Miltenyi Biotec, Germany). After isolation, the cells were cryopreserved in 10% DMSO in FCS (fetal calf serum) and stored at −150° C. in aliquots of 1×10^5 cells/vial. Cells were analysed for the purity of the isolation with flow cytometry on a BD LSR II (BD Biosciences, CA) using CD34-APC, CD133-PE and the appropriate isotype controls (all Miltenyi Biotec). Bone marrow derived CD133+ cells were obtained commercially from Lonza and peripheral blood CD133+ cells were isolated using immunomagnetic beads as above from total peripheral blood mononuclear cells obtained commercially from Lonza Biologies.
Vials from 2 or 3 donors were thawed and pooled in StemSpan ACF media (Stem Cell Technologies) containing 100 ng/mL SCF, 100 ng/mL FLT3LG and 20 ng/mL TPO (all from Miltenyi Biotec). After counting, cells were plated in 96 well round bottom suspension plates at 20,000 cells/well in the above media. Cells were allowed to recover overnight in these conditions in a 37° C. humidified incubator with 5% CO2.
The next day cells were harvested from the plates counted, and seeded into 24 well Nanex plates (Compass Biomedical) or standard tissue culture treated plates at 2500 cells/well in 1 mL basal media (StemSpan ACF with 100 ng/mL SCF, 100 ng/mL FLT3LG and 20 ng/mL TPO) containing an HDAC inhibitor (for most experiments scriptaid was used at a concentration of 1 μM). An aliquot of cells was used for CFU analysis and another for flow cytometry analysis.
After 3 days in culture the media was either replaced or supplemented with fresh media with the cytokines (SCF, TPO and FLT3LG) and the HDAC inhibitors (scriptaid 1 μM). Sixteen to twenty hours prior to harvest WR1065 was added at a concentration of 100 μM. After total of 5 days in expansion, cells are harvested, counted and analysed by flow cytometry.
Cells were harvested, washed and stained in 3% FBS in PBS using a panel of pre-conjugated antibodies. Cells were incubated with antibodies on ice for 30 min, then washed twice in 3% FBS in PBS and resuspended in 250 uL of above buffer before being analysed using a BD Canto II flow cytometer. [Antibody panel was as follows: 5 Lin custom cocktail (CD235a, CD4, CD10, CD11b and CD19) APC-Vio770, CD38-PE-Vio770, CD34-PerCP-Vio700, CD133-PE, CD45RA-VioBlue, CD49f-FITC, CD90-APC (all from Miltenyi Biotec).]
Cell number was measured using flow cytometry with the aid of counting beads (CountBright beads Life Technologies).

[2] = test system: bone marrow derived CD34+ cells; conditions: pre-treatment of bone marrow derived CD34+ cells, in vitro; background; cited from earlier work
[3] = test system: irradiated NSG mice; test: Repopulation capacity of expanded cord blood cells in immuno-compromised NSG mice (secondary recipients); conditions: secondary recipient mice, bled at week 8; mice received cord blood cells expanded ex vivo with the substance; FIG. 15
Description: The effect of different ex vivo expansion protocols on the ability of the cells to repopulate bone marrow in vivo was investigated. Cells were obtained from cord blood and four cell preparations were produced—1. Unexpanded cells, 2. Cells expanded in the presence of vehicle, 3. Cells expanded in the presence of scriptaid (expanded+SS—FIG. 15), 4. Cells expanded in the presence of scriptaid and WR1065 (expanded+SW—FIG. 15). These cell preparations were then injected into irradiated adult (<8 weeks) male NSG (NOD.Cg-Prkdc^scid II2rcf^Im1Wjl/SzJ) mice. Flow cytometry analysis was performed on blood samples taken at week 15 (CD45^hu & CD45^mu only) to identify animals with evidence of clear engraftment (human CD45+ cells in the blood at week 12, and week 15 human CD45+ count above 1%). Ten of the animals with human CD45+ count above 1%, were used as donors for 10 secondary recipients in one to one manner. At week 20 after cell administration the primary animals were sacrificed. Bone marrow samples were harvested from femurs and tibias and the cells were washed before being counted. 50% of the recovered cells were injected into secondary irradiated animals. In this manner the long term engraftment capabilities of the expanded cells could be determined. The secondary animals were bled at week 8 and whole blood samples analysed by FACs for evidence of engraftment. […]

[4] = UCB cells from three separate donors and a pooled sample, FIG. 13

| Compound | fold expansion of total nucleated cells (TNC) compared to cells grown in basal media [1] | fold expansion of HSC compared to cells grown in basal media [1] | fold expansion of HSC (Lin−, CD38−, CD34+, CD45RA−, CD133+, CD90+, CD49f+) above basal media containing cytokines [1] | further results |
| --- | --- | --- | --- | --- |
| Cc1cc(C)cc(C(=O)NOCCCCCC(=O)NO)c1 [LMK235] | slightly lower | significantly increased | – | – |
| Nc1cc(F)ccc1NC(=O)/C=C/c1cnn(C/C=C/c2ccccc2)c1 [RGFP966] | increase | similar | – | – |
| CN1CCc2c(c3ccccc3n2Cc2ccc(C(=O)NO)cc2)C1 [Tubastatin A] | similar | significantly increased | – | – |
| NCCCNCCS [WR1065] | – | – | around 3 fold | enhancement of formation of CFU-GEMM and BFU-E colonies [2]: ≤ 38 fold |
| Cn1cc(CNCC2CCN(c3ncc(C(=O)NO)cn3)CC2)c2ccccc21 [quisinostat] | slightly lower | significantly increased | – | – |
| O=C(CCCCCN1C(=O)c2cccc3cccc(c23)C1=O)NO [scriptaid] | slightly reduced | – | approximately 10 fold | fold expansion of HSC compared to cells cultured in basal media on different culture surfaces ([1]; Nanex scaffolds, TC treated Corning 24 well plates, suspension Greiner Bio 24 well plates, effect similar across surfaces, FIG. 14): significantly increased; fold expansion of HSC compared to cells cultured on basal media, average [1, 4]: 30 fold; fold expansion of HSC compared to cells cultured on basal media, range [1, 4]: 10-55 fold; proportion of CD133+/CD34+ cells compared to cells grown on cytokines alone ([1]; after 5 days in culture): increase; average frequency of human CD45+ cells in whole blood, percentage of viable singlets [3]: 0.04% |
